# From patent US20060264475A1, “COMPOUNDS, COMPOSITIONS AND METHODS FOR INHIBITING OR TREATING HIV-1” (CYTOKINE PHARMASCIENCES, INC., priority 2004, published 2006)
# How the values were obtained:
# [1] = molecular target: T1, association of the viral matrix protein (p 17) with karyopherin α (Human immunodeficiency virus type 1 group M subtype B, UniProt P04591); assay: cell free assay of PIC binding to karyopherin α (HIV DNA in the Kα fraction); settings: cytoplasmic extracts of HIV-1 infected human monocyte-derived macrophages; FIG. 1
# T1 construct: The PIC is comprised of a number of viral proteins including MA (p17); endogenous in cells; host or cells: cytoplasmic extracts of human monocyte-derived macrophages infected with HIV-1 (virus-made protein in the PIC)
# Source text: The inhibition of a molecular target by ITI-367 is illustrated in FIG. 1. The molecular target for nuclear entry of HIV-1 is the association of the viral matrix protein (p 17) carrying the nuclear localization sequences, with the intracellular protein karyopherin α. To validate the activity of ITI-367, a cell free assay was used whereby human monocyte-derived macrophages collected from fresh blood samples were infected with HIV-1. At the predetermined time cells were lysed and the cytoplasmic extracts collected. The extracts contain HIV-1 pre-integration complexes (PIC) that represent the structure within which the HIV-1 cDNA is imported into the nucleus. The PIC is comprised of a number of viral proteins including MA (p17). […] Therefore, this is a cell free assay. The extent of binding was measured by evaluating the levels of HIV DNA found in the Kα fraction in the presence or absence of test compound.
# ADA strain of HIV-1 = assay: inhibition of HIV-1 infection in monocyte-derived macrophages; assay type: cell-based; settings: 10, 1, 0.1, 0.01 μM; over a two week period; FIG. 2
# Description: Macrophages were prepared as described above. After a week of culture in M-CSF, cells were washed several times in RPMI and pre-incubated in complete (NHS, pen/strep, L-glutamine) medium with compound ITI-367 in appropriate concentration overnight (10, 1, 0.1, and 0.01 μM). [ITI-367 having been dissolved in DMSO at 10 mM concentration which was used as a stock solution (stored at −70° C.). From the stock solutions a 50 μM solution of compound in RPMI was prepared and stored at 4° C.]. After overnight incubation with compound, cells were infected with 500,000 cpm (RT activity) of the ADA strain of HIV-1 in 500 μl of RPMI with or without the compound. Two hours after infection, cells were washed with RPMI and incubated in fresh complete medium with the appropriate concentration of compound. Every 3-4 days, half of the medium was collected and used to quantify the level of virus production. Cultures were supplemented with additional medium. Infected macrophages were maintained for 2-3 weeks.
# [2] = system: HIV-1 CCR5 clinical isolate; assay: inhibition of HIV-1 infection of T lymphocytes (tonsil cells), p24 ELISA; assay type: cell-based
# Description: T lymphocytes were isolated from tonsil tissue 24 hours post-surgical removal and then frozen. Aliquots of all were thawed on day of testing. There was no exogenous stimulation of the tonsil cells. The virus was a CCR5 clinical isolate at an approximate MOI of 1:40,000. Cells were incubated in the presence of ITI-367 for 19 hours prior to a 2.5 hour infection, at which time the virus inoculum was removed followed by two complete media exchanges. Cell culture media was Iscove's Media with 2 mM L-Glutamine, 100 U/ml Penicillin, 100 ug/ml Streptomycin, and 8% heat-inactivated human serum AB. The drug concentrations used were 20 uM, 10 uM, 1 uM and 0.1 uM, prepared from a 50 mM DMSO stock. A no drug infection control (media only) was also evaluated in parallel. Replicates of four or six cultures were used to assess virus production from ITI-367 treated or control samples, respectively. Virus production was evaluated on days 3, 6, 10, 13, & 17 post-infection, by specific ELISA for HIV-1 core antigen (p24). Also, in FIG. 4, virus production was evaluated as a function of drug concentrations at 0, 0.1, 0.5, 1, 5 and 10 μM.
# [3] = system: HIV-1 CCR5 clinical isolate; assay: ITI-367 combination assay, HIV-1 infectivity in tonsil cells, p24 ELISA; assay type: cell-based; settings: combined with NRTi (AZT, d4T), NNRTi (efavirenz), Pi (saquinavir, nelfinavir), FIG. 5-9
# Description: The inhibitory potential of ITI-367 was tested using HIV-1 infectivity assays in combination with different FDA-approved drugs. […] Tonsil cells, isolated 24 hours post-surgical removal of tonsil tissue then frozen, were used as the target cells. Aliquots of the cells were thawed on the day of testing. There was no exogenous stimulation of the tonsil cells. The virus was a CCR5 clinical isolate at an approximate MOI of 1:40,000. Cells were incubated in the presence of drug for 17 hours prior to a 3.5 hour infection, at which time the virus inoculum was removed through three complete media exchanges. The cells were in the presence of drug before, during, and after all media removals. […]
# Cells were cultured at 37° C. and 5% CO2 Samples (150 μl) were harvested on days 3, 5, 7, and 10 post-infection for HIV-1 p24 content analysis by ELISA. […] Uninfected, untreated cells were counted at each sampling to monitor tonsil cell growth kinetics.
smiles,measurement,setting,value
COc1ccccc1-c1noc(=O)n1-c1cccc(C(F)(F)F)c1 [ITI-367],inhibition of association of PIC (MA p17) with karyopherin α,[1],inhibition
same,inhibition of HIV-1 infection in monocyte-derived macrophages,ADA strain of HIV-1,inhibition of HIV-1 infection
same,inhibition of HIV-1 infection of T lymphocytes,"[2]; 20, 10, 1, 0.1 uM, p24 over a seventeen day period, FIG. 3",inhibition of HIV-1 infection
same,inhibition of replication of HIV-1 in Primary Lymphocytes,"[2]; virus production as a function of drug concentration 0-10 μM, FIG. 4",inhibition
same,combination effect on inhibition of HIV-1 replication,[3],synergistic effect
